Test [1] concerns Plasmodium falciparum. Put plainly: In vitro antimalarial activity against chloroquine-sensitive Plasmodium falciparum. It is filed as functional, organism-based.
Test [2] has as its system Mus musculus. Put plainly: In vivo antimalarial activity of compound against Plasmodium berghei infected in mice (Mus musculus) model. Compound active at given dose. The class given is functional.
The subject of test [3] is Plasmodium falciparum. Put plainly: In vitro antimalarial activity against chloroquine-resistant Plasmodium falciparum. The class given is functional, organism-based.
Test [4] concerns Mus musculus. Put plainly: In vivo antimalarial activity of compound against Plasmodium berghei infected in mice (Mus musculus) model; Inactive. The class given is functional, organism-based.

Activity calls are given as the source filed them. The rule behind the calls is not given here.

In the case of `C=CCn1cnc(CCN)c1`, half-maximal inhibition in test [1] (IC50) was put at 176 µM.
On the same count and under the same terms, then `NCCc1c[nH]c(C2CCCCC2)n1`, with above 500 µM; and `NCCc1cnc(C23CC4CC(CC(C4)C2)C3)n1Cc1ccccc1`, with above 500 µM; and `CCn1cnc(CCN)c1`, with above 500 µM.
Same read-out and setting: then `CC(C)c1ncc(CCN)n1Cc1ccccc1`, with 188 µM.
The molecule `CC(C)c1nc(CC(N)C(=O)O)c[nH]1` (stereo not given) gave a Dose in test [2] of 100 mg/kg. Moreover, the IC50 in test [3] was 6.5 µM; in test [1], 6.3 µM.
The molecule `CCn1cnc(CC(N)C(=O)O)c1` (stereo not given) showed an IC50 in test [1] above 500 µM.
On the same count and under the same terms, then `CC(C)(C)c1ncc(CCN)n1Cc1ccccc1`, with 233 µM; and `CC(C)n1cnc(CC(N)C(=O)O)c1` (stereo not given), with 120 µM.
Same read-out and setting: with `CC(C)(C)c1ncc(CC(N)C(=O)O)n1Cc1ccccc1` (stereo not given) the figure was 399 µM; with `NC(Cc1cn(Cc2ccccc2)cn1)C(=O)O` (stereo not given), 360 µM.
For the molecule `CC(C)(C)c1nc(CCN)c[nH]1`, in test [4], the DOSE entry is “inactive”. In addition, the IC50 in test [3] turned out to be 30.3 µM; in test [1] it was 15.5 µM.
`Cc1ncc(CCN)[nH]1` [2-METHYLHISTAMINE]: the IC50 in test [1] is above 500 µM.
`Cn1c(CC(N)C(=O)O)cnc1C(C)(C)C` (stereo not given) returned an IC50 in test [1] above 500 µM.
In the case of `NC(Cc1cnc(C23CC4CC(CC(C4)C2)C3)n1Cc1ccccc1)C(=O)O` (stereo not given), the IC50 in test [1] was above 500 µM.
Still for that read-out and setting: with `NCCc1c[nH]c(C2CCCC2)n1` the figure was 489 µM; with `NC(Cc1c[nH]c(C2CCCC2)n1)C(=O)O` (stereo not given), 276 µM; with `Cn1cnc(CCN)c1` [N-METHYLHISTAMINE], above 500 µM.
Same read-out and setting: with `CC(C)c1ncc(CC(N)C(=O)O)n1Cc1ccccc1` (stereo not given) the figure was 355 µM; with `NC(Cc1c[nH]c(C2CCCCC2)n1)C(=O)O` (stereo not given), 350 µM; with `Cn1cc(CC(N)C(=O)O)nc1C(C)(C)C` (stereo not given), above 500 µM.
On the same count and under the same terms, then `CCc1nc(CCN)c[nH]1`, with above 500 µM.
In turn, `CC(C)c1nc(CCN)c[nH]1` registered a Dose in test [2] of 100 mg/kg. Further, the IC50 is 4.8 µM in test [3] and 4.7 µM in test [1].
Consider `NC(Cc1c[nH]c(C2CCC2)n1)C(=O)O` (stereo not given), for which the 50% inhibitory concentration (IC50) in test [1] was determined as 255 µM.
The same measure, in the same setting: then `CC(C)c1nc(CCN)cn1C`, with 387 µM; and `NCCc1cnc(C2CCCCC2)n1Cc1ccccc1`, with above 500 µM.
Consider `CC(C)(C)c1nc(CC(N)C(=O)O)c[nH]1` (stereo not given), for which the DOSE result in test [4] was “inactive”. The IC50 in test [3] came to 3.85 µM; in test [1] it was 25.8 µM.
For `Cn1cc(CCN)nc1C1CCCCC1`, the IC50 in test [1] is above 500 µM.
For the molecule `CC(C)n1cnc(CCN)c1`, in test [2], the Dose turned out to be 100 mg/kg. Moreover, the IC50 in test [3] was found to be 10.4 µM; in test [1], 9.6 µM.
With `NC(Cc1c[nH]c(C23CC4CC(CC(C4)C2)C3)n1)C(=O)O` (stereo not given), in test [1], the half-maximal inhibitory concentration (IC50) came out at 450 µM.
Still for that read-out and setting: then `CC(C)(C)c1nc(CC(N)C(=O)O)cn1Cc1ccccc1` (stereo not given), with 157 µM; and `NCCc1c[nH]c(C2CCC2)n1`, with 367 µM; and `Cn1cc(CC(N)C(=O)O)nc1C1CCCCC1` (stereo not given), with above 500 µM.
`CC(C)c1nc(CC(N)C(=O)O)cn1C` (stereo not given) yielded an IC50 in test [1] above 500 µM.
On the same count and under the same terms, with `Cn1cnc(CC(N)C(=O)O)c1` (stereo not given) the figure was above 500 µM; with `NC(Cc1cnc(C2CCCCC2)n1Cc1ccccc1)C(=O)O` (stereo not given), above 500 µM; with `Cc1nc(CC(N)C(=O)O)c[nH]1` (stereo not given), above 500 µM.
As to `CC(C)c1nc(CC(N)C(=O)O)cn1Cc1ccccc1` (stereo not given), the DOSE entry in test [4] was “inactive”. The half-maximal inhibitory concentration (IC50) in test [3] is 245 µM; in test [1], 89 µM.
Taken in the same sequence, the figures for `NCCc1cn(Cc2ccccc2)cn1` were “inactive”, 22.5 µM and 20.7 µM.
On to `CCc1nc(CC(N)C(=O)O)c[nH]1` (stereo not given), for which the IC50 in test [1] is above 500 µM.
The same measure, in the same setting: then `Cn1cc(CCN)nc1C(C)(C)C`, with 459 µM.

The record behind these values is ChEMBL document CHEMBL1135161, “Antimalarial activities of ring-substituted bioimidazoles” (Bioorg Med Chem Lett, 2002).
